Like-named read-outs stand apart in the source and are kept apart here.
Tests used:
Format in all cases: cell-based, mouse
[1] = system: BMSC cells primed for osteogenesis; conditions: BMSC primed with LCN2 and PRL, then osteogenic media with agent; ATO 10 μM, Cholecalciferol 10 μM, Lovastatin 1 μM, NP101 diluted 1:1 or 1:10 (FIG. 2)
Method: (§1) Mesenchymal stem cells isolation: Bone marrow stromal cells were isolated from six to eight weeks old wild type mice. Femurs and tibias were dissected from surrounding tissues. The epiphyseal growth plates were removed and the marrow was collected by flushing with modified essential medium (MEM) containing 100 U/ml Penicillin, 100 μg/ml streptomycin and 10% fetal bovine serum with a 25 G needle. Single cell suspensions were prepared by passing the cell clumps through an 18G needle followed by filtration through a 70-μm cell strainer.
Priming cells for osteogenseis: An aliquot of cells was diluted 1:1 with 0.04% trypan blue in PBS and viable cells were plated at a density of 2×10^6 cells/cm^2 and in a 35-mm culture dish and exposed to recombinant mouse Prolactin (PRL) (1 ng/ml) and/or Lacritin 2(LCN2) (18 ng/ml) in Alpha MEM media with 20% FBS, L-Glutamine 2 mM and Pen-Strep (1×) for three passages to prime cells for osteogenesis. After the third passage, 50,000 bone marrow stromal cells per well were plated in a 24 well plate in Alpha MEM 20% FBS, L-Glutamine (4 mM), PenStrep (1×) and MEM Non-Essential Amino Acids (1×).
(§2) After cells reached confluence, medium was replaced with osteogenic differentiation medium (OM). Osteogenic differentiation medium (OM) consists of: DMEM, 10% FBS, Pen-Strep (1×), L-Glutamine (2 mM), 10 mM beta glycerol phosphate and 50 μg/ml ascorbic acid. Duplicate wells were exposed to differentiation media without any agent (control), single agent (Cholecalciferol, ATO or Lovastatin) or Nosto-101 combination agents. Media replacement occurred every 2-3 days with fresh differentiation medium (made each time during feeding) with or without single agent or Nosto-101.
Alkaline phosphatase assay: Cells were stained after 4 days exposure in OM differentiation medium for Alkaline Phosphatase (AP) assay. This is a colorimetric assay in which NBT (nitro-blue tetrazolium chloride) and BCIP (5-Bromo-4-chloro-3′-indolyphosphate p-toluidine salt) yields insoluble purple precipitate when reacted with alkaline phosphatase enzyme. […]

[2] = system: bone marrow stromal cells (BMSC), first passage (P1); assay: Alkaline phosphatase assay (NBT/BCIP staining) of primary BMSC (P1) in osteogenic media; conditions: primary BMSC P1, four days in osteogenic media; ATO 10 μM, Cholecalciferol 10 μM, Lovastatin 1 μM, NP101 diluted 1:1 or 1:10 (FIG. 1)
Method: as §1, §2
Alkaline phosphatase assay: Cells were stained after 4 days exposure in OM differentiation medium for Alkaline Phosphatase (AP) assay. This is a colorimetric assay in which NBT (nitro-blue tetrazolium chloride) and BCIP (5-Bromo-4-chloro-3′-indolyphosphate p-toluidine salt) yields insoluble purple precipitate when reacted with alkaline phosphatase enzyme.
After 4 days of culturing cells in OM media, cells were fixed with 4% paraformaldehyde and then washed once with PBS. One ml of One-step NBT/BCIP staining solution (Thermo Fisher) was added per well and the cells were then incubated in the dark for 30 min to 1 h and checked for color development. The reaction was quickly stopped by removing NBT/BCIP and adding water.

[3] = system: Alkaline Phosphatase gene expression in BMSC culture; conditions: four days in OM media, control = 1.00
Method: as §1, §2
qRT-PCR: Total RNA was isolated first with Trizol (Invitrogen) and then with RNeasy Kit (Qiagen). First strand cDNA was generated using a High capacity cDNA reverse transcriptase kit (Abcam). qPCR was performed using a Biorad cycler at 40 cycles of 95° C. for 5 seconds and at 60° C. for 30 seconds. PCR product was detected using SybrGreen (BioRad). Primers used for amplifications were Actin: Forward 5′-CACAGCTTCTTTGCAGCTCCT-3′ (SEQ ID NO:1), Reverse 5′-CGT CAT CCA TGG CGA ACT G-3′ (SEQ ID NO:2); Alk Phos: Forward 5′-CACGCGATGCAACACTCAGG-3′ (SEQ ID NO:3), Reverse 5′-GCATGTCCCCGGGCTCAAAGA-3′ (SEQ ID NO:4).

Row | Compound | ALP activity (presence of bluish/purple cells) [1] | alkaline phosphatase activity (number of blue colored cells) [2] | ALP gene expression fold change ([3]; 10 μm agent) | ALP gene expression fold change ([3]; 1 μm agent)
1 | C=C1CC[C@H](O)C/C1=C/C=C1\CCC[C@]2(C)[C@@H]([C@H](C)CCCC(C)C)CC[C@@H]12 [Cholecalciferol] | clearly diminish ALP activity | decreases | 0.350 ± 0.02 fold | 
2 | CC[C@H](C)C(=O)O[C@H]1C[C@@H](C)C=C2C=C[C@H](C)[C@H](CC[C@@H]3C[C@@H](O)CC(=O)O3)[C@H]21 [Lovastatin] | clearly diminish ALP activity | decreases |  | 0.316 ± 0.02 fold
3 | Arsenic trioxide [ATO] | clearly diminish ALP activity | decreases | 0.105 ± 0.01 fold | 
